The source made the active and inactive calls.
Tests used:
[1] = biological target: T1, Endoribonuclease toxin MazF (Escherichia coli K-12, UniProt P0AE70); test: activation of MazEF endoribonuclease cleavage – biochemical, fluorescence, single-stranded RNA substrate, uHTS hits, dose response (AID 588481); assay type: functional
[2] = biological target: T1, Endoribonuclease toxin MazF; test: substrate-only fluorescence increase artefacts – biochemical, single-stranded RNase substrate, counter-screen for MazEF activator project, dose response (AID 588502); assay type: functional
[3] = biological target: T2, Sentrin-specific protease 1 (Homo sapiens, UniProt Q9P0U3); test: SENP1 catalytic domain blockers, concentration series – biochemical, kinetic FRET, dose response (AID 651697); assay type: functional; conditions: read-out: IC50_Mean
T2 sequence (Q9P0U3 whole entry, the tested form may be a part): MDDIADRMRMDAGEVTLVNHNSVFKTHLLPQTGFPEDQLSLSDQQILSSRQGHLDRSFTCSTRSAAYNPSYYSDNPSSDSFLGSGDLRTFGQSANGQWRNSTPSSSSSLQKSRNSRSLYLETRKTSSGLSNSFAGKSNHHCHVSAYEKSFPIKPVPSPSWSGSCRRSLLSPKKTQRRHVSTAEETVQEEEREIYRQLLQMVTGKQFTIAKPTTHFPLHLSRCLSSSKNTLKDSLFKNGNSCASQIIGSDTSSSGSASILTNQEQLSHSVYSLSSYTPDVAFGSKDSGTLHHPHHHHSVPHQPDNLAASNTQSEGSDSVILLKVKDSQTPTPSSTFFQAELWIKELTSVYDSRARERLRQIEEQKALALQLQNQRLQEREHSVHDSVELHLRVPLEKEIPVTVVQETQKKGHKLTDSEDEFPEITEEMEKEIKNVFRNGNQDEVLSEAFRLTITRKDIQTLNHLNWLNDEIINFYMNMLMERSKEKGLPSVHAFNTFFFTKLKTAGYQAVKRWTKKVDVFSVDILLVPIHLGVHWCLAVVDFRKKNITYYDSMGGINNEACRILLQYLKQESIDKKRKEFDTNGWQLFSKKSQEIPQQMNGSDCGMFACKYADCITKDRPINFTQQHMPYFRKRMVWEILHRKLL

[4] = biological target: T2, Sentrin-specific protease 1; test: Dose response confirmation of small molecule inhibitors of the catalytic domain of the SUMO protease, SENP1 in a FRET assay.; assay type: functional; conditions: read-out: IC50_Mean
[5] = tested on: Streptococcus sp. 'group A'; test: Streptococcus pyogenes SK(-)GAS viability under kanamycin – luminescence, BacTiterGlo, confirmation, counter-screen for streptokinase expression inhibitor project, dose response (AID 1900); assay type: functional, organism-based
[6] = biological target: T3, Streptokinase A (Streptococcus pyogenes serotype M1, UniProt P10520); test: viability-normalized secreted streptokinase activity reduction – plasminogen activation absorbance, OD405, dose response (AID 1914); assay type: functional, Streptococcus pyogenes M1 GAS;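 note: secreted streptokinase activity via plasminogen activation per viability signal from cell pellet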
T3 sequence (P10520 whole entry): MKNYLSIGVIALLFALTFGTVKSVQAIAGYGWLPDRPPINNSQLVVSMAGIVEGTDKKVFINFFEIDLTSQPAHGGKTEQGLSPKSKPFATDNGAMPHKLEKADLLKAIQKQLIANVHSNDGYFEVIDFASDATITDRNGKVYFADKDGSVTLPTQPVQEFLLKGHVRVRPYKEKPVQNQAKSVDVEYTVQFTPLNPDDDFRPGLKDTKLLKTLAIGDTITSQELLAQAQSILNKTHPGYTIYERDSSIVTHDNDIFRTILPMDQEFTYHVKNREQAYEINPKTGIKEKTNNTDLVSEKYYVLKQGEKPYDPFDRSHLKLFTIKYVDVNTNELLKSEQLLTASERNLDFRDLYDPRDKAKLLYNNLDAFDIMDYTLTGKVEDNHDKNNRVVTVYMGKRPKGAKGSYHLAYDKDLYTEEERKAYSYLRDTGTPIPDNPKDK

[7] = tested on: Streptococcus; test: GAS UMAA2166 growth inhibition – luminescence, BacTiterGlo, counter-screen for streptokinase expression inhibitor project, dose response (AID 1915); assay type: functional, organism-based;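 note: potency for reduction of bacterial viability or growth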
[8] = biological target: Dual specificity tyrosine-phosphorylation-regulated kinase 1A (Rattus norvegicus, UniProt Q63470); assay type: biochemical, Homo sapiens
[9] = biological target: Voltage-gated inwardly rectifying potassium channel KCNH2 (Homo sapiens, UniProt Q12809); conditions: Potency;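 note: confirmatory quantitative high-throughput screen measuring inhibition of hERG channel activity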
[10] = biological target: Envelope glycoprotein gp160 (Human immunodeficiency virus 1, UniProt Q6QLK5); test: cell-free HIV fusion peptide-binding blockers – biochemical, uHTS, fluorescence dequenching, […] (AID 1986)
[11] = biological target: T4, RNA-binding protein pos-1 (Caenorhabditis elegans, UniProt G5EF15); test: disruptors of C. elegans POS-1 RNA interaction – biochemical, fluorescence polarization, dose response (AID 1964);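 note: purified POS-1 fused to maltose binding protein made in E. coli; potency of compounds blocking POS-1 binding to fluorescent RNA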
T4 sequence (G5EF15 whole entry): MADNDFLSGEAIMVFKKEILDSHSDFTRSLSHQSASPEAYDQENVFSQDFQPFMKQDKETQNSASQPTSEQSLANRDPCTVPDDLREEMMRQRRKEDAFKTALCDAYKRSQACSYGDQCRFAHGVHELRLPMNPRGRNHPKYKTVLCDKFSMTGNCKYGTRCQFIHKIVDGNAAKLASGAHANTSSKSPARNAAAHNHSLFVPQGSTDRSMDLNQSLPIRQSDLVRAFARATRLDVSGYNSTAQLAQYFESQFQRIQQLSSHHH

[12] = biological target: Large T antigen (Simian virus 40, UniProt P03070); assay type: functional, Betapolyomavirus macacae;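 note: Confirmatory-stage PubChem screen for compounds that inhibit SV40 T antigen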
Sequence of Large T antigen (P03070 whole entry): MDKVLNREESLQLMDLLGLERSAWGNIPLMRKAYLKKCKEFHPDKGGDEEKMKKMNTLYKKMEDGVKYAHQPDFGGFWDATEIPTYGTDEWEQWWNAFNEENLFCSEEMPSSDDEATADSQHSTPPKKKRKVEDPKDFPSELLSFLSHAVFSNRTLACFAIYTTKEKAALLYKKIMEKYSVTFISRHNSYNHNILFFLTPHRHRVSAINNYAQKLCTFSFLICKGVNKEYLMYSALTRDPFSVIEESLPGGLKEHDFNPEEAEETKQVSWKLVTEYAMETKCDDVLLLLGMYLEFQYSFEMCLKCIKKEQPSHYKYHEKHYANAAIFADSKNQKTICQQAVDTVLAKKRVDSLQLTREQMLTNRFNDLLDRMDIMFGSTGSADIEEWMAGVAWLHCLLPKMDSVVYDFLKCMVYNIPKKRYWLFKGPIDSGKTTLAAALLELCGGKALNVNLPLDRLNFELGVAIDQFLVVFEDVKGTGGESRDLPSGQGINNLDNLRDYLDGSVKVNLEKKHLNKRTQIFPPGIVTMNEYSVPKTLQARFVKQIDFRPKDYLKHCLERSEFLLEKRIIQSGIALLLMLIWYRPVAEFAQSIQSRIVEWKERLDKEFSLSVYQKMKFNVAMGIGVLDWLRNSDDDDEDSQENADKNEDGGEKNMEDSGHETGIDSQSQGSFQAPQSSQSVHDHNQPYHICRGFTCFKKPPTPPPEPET

[13] = biological target: NS3 (Hepatitis C virus, UniProt A3EZJ3); test: PubChem AID 2173; design: species or system Hepacivirus hominis
Sequence of NS3 (A3EZJ3 whole entry): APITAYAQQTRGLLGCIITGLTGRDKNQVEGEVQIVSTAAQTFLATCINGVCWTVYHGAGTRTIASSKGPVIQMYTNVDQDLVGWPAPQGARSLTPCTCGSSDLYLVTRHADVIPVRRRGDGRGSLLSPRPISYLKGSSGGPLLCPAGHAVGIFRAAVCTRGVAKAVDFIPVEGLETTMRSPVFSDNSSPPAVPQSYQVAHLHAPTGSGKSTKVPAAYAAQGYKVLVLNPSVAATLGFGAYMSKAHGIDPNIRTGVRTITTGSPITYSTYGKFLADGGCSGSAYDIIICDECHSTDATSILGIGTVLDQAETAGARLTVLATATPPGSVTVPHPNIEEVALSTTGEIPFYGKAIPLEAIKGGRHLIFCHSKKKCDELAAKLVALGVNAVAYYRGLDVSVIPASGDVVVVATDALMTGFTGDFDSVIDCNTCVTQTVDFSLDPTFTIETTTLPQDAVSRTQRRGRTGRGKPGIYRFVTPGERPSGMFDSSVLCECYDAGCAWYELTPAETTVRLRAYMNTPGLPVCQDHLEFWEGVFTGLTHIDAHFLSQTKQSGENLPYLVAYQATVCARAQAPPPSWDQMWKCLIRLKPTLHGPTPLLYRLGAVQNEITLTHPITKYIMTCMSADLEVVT

[14] = biological target: Intestinal-type alkaline phosphatase (Mus musculus, UniProt P24822); test: PubChem AID 488785; assay type: functional
[15] = biological target: Beta-adrenergic receptor kinase 1 (Homo sapiens, UniProt P25098); test: aptamer displacement from bead-bound GRK2 – biochemical, cherry pick 1, bead flow cytometry, dose response (AID 504500)
[16] = biological target: T5, Alkaline phosphatase, tissue-nonspecific isozyme (Homo sapiens, UniProt P05186); test: TNAP enzyme inhibition by screening hits, dose response, selectivity assay for mouse IAP inhibitor project, biochemical, human TNAP, uHTS hits (AID 488906); assay type: functional
T5 sequence (P05186 whole entry): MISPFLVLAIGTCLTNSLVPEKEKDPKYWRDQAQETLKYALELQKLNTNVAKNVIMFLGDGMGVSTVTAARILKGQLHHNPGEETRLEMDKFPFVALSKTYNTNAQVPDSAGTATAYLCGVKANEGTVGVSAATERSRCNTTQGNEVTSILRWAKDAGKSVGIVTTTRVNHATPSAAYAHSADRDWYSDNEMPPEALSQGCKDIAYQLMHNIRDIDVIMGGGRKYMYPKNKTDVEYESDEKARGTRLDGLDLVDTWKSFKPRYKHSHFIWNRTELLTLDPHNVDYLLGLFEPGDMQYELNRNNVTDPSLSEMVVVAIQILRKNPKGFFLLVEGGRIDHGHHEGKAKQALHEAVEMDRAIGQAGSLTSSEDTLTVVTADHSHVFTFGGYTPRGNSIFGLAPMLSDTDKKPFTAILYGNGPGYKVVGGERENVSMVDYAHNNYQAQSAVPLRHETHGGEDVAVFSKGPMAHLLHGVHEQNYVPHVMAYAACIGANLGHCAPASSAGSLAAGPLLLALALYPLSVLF

[17] = biological target: Intestinal-type alkaline phosphatase (Homo sapiens, UniProt P09923); test: inhibition of human intestinal alkaline phosphatase – biochemical, dose response (AID 488876); assay type: functional
Sequence of Intestinal-type alkaline phosphatase (Homo sapiens, UniProt P09923) (P09923 whole entry): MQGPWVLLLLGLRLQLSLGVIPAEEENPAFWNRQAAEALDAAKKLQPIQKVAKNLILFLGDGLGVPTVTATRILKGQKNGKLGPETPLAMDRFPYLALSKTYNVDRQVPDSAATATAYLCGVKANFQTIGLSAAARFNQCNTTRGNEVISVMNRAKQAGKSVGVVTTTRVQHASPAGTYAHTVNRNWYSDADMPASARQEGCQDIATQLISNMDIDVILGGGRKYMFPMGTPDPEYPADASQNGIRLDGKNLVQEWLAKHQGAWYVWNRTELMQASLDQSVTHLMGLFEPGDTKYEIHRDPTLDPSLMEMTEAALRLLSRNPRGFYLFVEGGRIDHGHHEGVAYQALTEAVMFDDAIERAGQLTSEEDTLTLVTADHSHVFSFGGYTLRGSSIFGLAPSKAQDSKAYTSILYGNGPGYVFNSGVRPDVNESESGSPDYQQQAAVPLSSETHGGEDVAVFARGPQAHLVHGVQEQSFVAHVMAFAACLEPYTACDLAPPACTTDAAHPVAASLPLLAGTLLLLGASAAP

[18] = biological target: Genome polyprotein (dengue virus type 2, UniProt P29990); test: flavivirus cap methylation enzyme inhibition – biochemical, confirmation dose response, primary screen (AID 588689); assay type: functional
[19] = biological target: Phospholipase D1 (Homo sapiens, UniProt Q13393); test: cellular phospholipase D1 inhibition IC50 – cell-based, dose response (AID 602151); assay type: functional;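 note: cellular PLD1 assay in Calu-1 cells stimulated with PMA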
Sequence of Phospholipase D1 (Q13393 whole entry): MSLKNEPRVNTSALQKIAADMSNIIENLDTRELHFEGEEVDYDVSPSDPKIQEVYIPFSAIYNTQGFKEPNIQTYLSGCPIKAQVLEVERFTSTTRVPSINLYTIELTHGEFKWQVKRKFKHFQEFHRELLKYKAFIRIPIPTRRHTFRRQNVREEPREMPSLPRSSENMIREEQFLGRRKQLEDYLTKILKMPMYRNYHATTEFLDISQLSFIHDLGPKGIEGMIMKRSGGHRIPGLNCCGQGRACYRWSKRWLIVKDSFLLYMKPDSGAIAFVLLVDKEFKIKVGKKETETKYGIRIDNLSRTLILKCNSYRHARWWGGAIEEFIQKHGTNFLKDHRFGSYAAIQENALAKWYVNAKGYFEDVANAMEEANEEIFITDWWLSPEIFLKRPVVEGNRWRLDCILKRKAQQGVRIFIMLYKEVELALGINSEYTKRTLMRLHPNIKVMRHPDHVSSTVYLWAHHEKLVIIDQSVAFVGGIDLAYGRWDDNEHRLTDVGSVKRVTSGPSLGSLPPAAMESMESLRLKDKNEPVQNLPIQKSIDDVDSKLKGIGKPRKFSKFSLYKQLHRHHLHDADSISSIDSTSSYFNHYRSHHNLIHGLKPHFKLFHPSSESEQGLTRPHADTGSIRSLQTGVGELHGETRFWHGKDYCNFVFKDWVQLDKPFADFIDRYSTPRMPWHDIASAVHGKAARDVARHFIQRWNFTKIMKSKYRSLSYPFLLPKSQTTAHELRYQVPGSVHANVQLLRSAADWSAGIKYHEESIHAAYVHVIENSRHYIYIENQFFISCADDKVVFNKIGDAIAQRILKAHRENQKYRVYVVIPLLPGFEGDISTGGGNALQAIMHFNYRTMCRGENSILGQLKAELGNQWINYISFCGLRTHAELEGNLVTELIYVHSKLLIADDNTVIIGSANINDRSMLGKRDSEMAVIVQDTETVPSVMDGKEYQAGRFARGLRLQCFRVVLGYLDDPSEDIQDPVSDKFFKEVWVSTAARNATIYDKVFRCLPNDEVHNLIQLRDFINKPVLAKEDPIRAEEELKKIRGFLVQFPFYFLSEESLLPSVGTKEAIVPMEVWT

[20] = biological target: Phospholipase D2 (Homo sapiens, UniProt O14939); test: cellular phospholipase D2 inhibition IC50 – cell-based, dose response (AID 602147); assay type: functional;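 note: cellular assay in HEK293 cells overexpressing GFP-tagged PLD2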
Sequence of Phospholipase D2 (O14939 whole entry): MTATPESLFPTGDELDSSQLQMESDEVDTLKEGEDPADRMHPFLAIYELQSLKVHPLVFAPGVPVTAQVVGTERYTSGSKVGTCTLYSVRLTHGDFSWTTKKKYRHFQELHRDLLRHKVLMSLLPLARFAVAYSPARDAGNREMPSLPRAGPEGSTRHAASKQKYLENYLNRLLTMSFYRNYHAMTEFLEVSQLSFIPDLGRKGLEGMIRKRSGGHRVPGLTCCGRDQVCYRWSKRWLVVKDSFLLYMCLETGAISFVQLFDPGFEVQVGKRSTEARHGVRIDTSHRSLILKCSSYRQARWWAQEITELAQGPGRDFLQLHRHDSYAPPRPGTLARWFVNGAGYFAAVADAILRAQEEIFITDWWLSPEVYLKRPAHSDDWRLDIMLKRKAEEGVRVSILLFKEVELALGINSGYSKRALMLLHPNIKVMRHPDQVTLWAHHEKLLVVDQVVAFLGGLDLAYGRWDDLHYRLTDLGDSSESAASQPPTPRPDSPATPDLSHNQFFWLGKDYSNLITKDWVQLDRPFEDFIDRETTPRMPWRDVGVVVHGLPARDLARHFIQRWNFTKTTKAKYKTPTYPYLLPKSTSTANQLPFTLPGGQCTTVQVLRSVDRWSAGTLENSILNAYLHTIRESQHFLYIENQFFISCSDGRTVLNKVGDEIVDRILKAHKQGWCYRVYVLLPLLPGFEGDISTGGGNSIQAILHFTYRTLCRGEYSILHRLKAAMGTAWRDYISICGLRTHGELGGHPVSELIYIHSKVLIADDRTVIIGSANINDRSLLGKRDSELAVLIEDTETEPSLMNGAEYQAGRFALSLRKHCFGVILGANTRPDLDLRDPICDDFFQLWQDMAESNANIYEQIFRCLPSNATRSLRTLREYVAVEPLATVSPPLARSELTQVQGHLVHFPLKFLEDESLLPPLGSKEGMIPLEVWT

[21] = microbe, parasite or virus in culture; assay type: functional; conditions: Mycobacterium tuberculosis
[22] = viability of PTEN-deleted HCT116 cells – cell-based, HCT116 PTEN knockout, dose response (AID 1047); assay type: functional;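 note: HCT116 colon tumor cells with PTEN knocked out; cells exposed to compound for 60 hours before readout; potency for loss of cell viability measured by luminescence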
[23] = viability of HCT116 lacking mutant beta-catenin – cell-based, human colon tumor, dose response (AID 1045); assay type: functional;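 note: HCT116 colon tumor cells with beta catenin knocked out; cells exposed to compound for 60 hours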
[24] = THP-1 cell cytotoxicity, dose response, cytotoxicity control for non-replicating M. tuberculosis project (AID 489025); assay type: functional
[25] = Luminescence Cell-Based Dose Retest to Confirm Inhibitors of Cancer Stem Cells. [Related pubchem assays (depositor defined):AID2717, AID2721]; assay type: functional, Homo sapiens; conditions: Homo sapiens
[26] = HepG2 cell cytotoxicity, dose response, cytotoxicity control for non-replicating M. tuberculosis project (AID 489018); assay type: functional; conditions: Mycobacterium tuberculosis
[27] = Vero E6 cell cytotoxicity, dose response, cytotoxicity control for non-replicating M. tuberculosis project, secondary assay (AID 492998); assay type: functional, VeroE6; conditions: Vero C1008
[28] = biological target: Nonstructural protein 1 (Influenza A virus, UniProt Q194T2); assay type: functional, Influenza A virus (A/California/07/2009(H1N1))
Sequence of Nonstructural protein 1 (Q194T2 whole entry): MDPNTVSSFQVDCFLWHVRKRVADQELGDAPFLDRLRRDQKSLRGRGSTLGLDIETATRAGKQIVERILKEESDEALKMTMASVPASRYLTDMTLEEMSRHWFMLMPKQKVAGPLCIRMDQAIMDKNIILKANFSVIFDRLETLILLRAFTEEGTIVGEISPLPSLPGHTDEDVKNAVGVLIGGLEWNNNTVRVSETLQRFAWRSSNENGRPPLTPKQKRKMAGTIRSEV

[29] = biological target: T6, Microphthalmia-associated transcription factor (Homo sapiens, UniProt O75030); test: reducers of TRPM1 reporter luminescence, concentration series – cell-based, SK-MEL-5, cherry-picked, set 3, MITF inhibitor project, dose response (AID 493073); assay type: functional;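 note: SK-MEL-5 melanoma cells with luciferase driven by the MITF target TRPM1 promoter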
T6 sequence (O75030 whole entry): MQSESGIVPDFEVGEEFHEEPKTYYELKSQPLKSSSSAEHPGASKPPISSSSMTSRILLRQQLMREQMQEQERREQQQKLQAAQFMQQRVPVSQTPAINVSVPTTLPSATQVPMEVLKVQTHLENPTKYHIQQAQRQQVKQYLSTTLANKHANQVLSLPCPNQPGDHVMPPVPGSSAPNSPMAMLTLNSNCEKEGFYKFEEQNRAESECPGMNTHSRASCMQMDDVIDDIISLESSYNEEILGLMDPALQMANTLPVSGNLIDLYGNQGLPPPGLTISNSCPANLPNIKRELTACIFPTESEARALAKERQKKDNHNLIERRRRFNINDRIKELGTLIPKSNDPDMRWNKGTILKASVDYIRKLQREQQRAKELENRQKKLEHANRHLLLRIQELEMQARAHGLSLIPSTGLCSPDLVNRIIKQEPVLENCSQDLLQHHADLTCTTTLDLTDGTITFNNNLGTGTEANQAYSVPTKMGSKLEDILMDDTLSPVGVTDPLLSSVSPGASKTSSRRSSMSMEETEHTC

[30] = cells; assay type: functional
[31] = tested on: A-375; test: proliferation inhibition in MITF-low A375 cells – cell-based, cherry-pick samples, set 2, counter-screen for MITF modulator project, dose response (AID 540335); assay type: functional; conditions: Homo sapiens
[32] = biological target: T7, DNA repair protein RAD52 homolog (Homo sapiens, UniProt P43351); assay type: functional, biochemical
T7 sequence (P43351 whole entry): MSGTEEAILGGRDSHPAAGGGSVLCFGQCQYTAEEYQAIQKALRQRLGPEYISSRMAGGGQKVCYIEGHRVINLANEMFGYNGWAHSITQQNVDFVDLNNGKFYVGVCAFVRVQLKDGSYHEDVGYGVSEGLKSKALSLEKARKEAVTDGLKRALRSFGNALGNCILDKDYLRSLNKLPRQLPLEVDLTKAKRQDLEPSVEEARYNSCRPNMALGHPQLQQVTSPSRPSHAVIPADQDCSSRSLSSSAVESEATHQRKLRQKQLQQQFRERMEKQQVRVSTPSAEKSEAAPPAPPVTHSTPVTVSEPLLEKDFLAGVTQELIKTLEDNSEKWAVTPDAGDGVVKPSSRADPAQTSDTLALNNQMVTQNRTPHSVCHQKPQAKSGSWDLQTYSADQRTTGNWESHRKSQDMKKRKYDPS

[33] = tested on: HeLa; test: ATP-based viability loss in HeLa cells – cell-based, CellTiter-Glo luminescence, cherry-pick samples, cytotoxicity control for MITF activator project, dose response (AID 540259); assay type: functional; conditions: Homo sapiens

T1 sequence (P0AE70 whole entry): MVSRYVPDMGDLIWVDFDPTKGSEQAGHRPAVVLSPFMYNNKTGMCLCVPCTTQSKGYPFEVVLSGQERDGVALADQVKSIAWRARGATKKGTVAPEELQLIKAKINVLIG

O=C(CCN1C(=O)/C(=C/c2cccs2)SC1=S)NNC(=O)c1cccc(O)c1
inactive: EC50 [1] > 99 µM | EC50 [2] > 99 µM | IC50 [4] 21.9 µM
active: IC50 [3] 16.2 µM

CC1CCc2c(C(=O)Nc3cccc(-c4nn[nH]n4)c3)csc2C1 (stereo not drawn)
> 150 µM (not active): EC50 [7]
active: EC50 [5] 127 µM | EC50 [6] 27.3 µM | AC50 [8] 8.35 µM

Brc1cc(Br)c(Oc2cc(Br)c(Br)cc2Br)cc1Br
inconclusive: AC50 [9] 17.8 µM

COc1ccc(N2C(=O)/C(=C/c3ccco3)C(=O)NC2=S)cc1
active: IC50 [10] 22.3 µM | EC50 [11] 5.3 µM | IC50 [12] 10.8 µM | IC50 [13] 4.61 µM | IC50 [14] 16.2 µM | EC50 [15] 7.83 µM | IC50 [16] 32.4 µM | IC50 [17] 46 µM | IC50 [18] > 100 µM

O=C(NCCN1CCC(C(=O)NCCc2ccccn2)CC1)c1ccc2ccccc2c1
active: IC50 [19] 20 µM | IC50 [20] 4.2 µM

CCN(Cc1ccccc1)c1ccc(/C=N/N=C(N)N)cc1
active: CC50 [21] 9.2 µM | EC50 [22] 3.27 µM | EC50 [23] 3.35 µM | CC50 [24] 7.49 µM | AC50 [25] 2.61 µM | CC50 [26] 7.93 µM | CC50 [27] 8.36 µM | IC50 [28] 39.3 µM | AC50 [29] 6.37 µM | IC50 [30] 10.9 µM | AC50 [31] 18.4 µM | AC50 [32] 6.26 µM

COC(=O)c1ccc(/C=N/Nc2nc(C)c(C)s2)cc1
active: AC50 [33] 69.8 µM
